Drawing on ChEMBL document CHEMBL1909046, “DrugMatrix in vitro pharmacology data”, this text covers IC50 and Ki for five molecules.

Experiment [1] can be described thus: DRUGMATRIX: Glutamate, AMPA radioligand binding (ligand: [3H] AMPA). The settings on record: Not Active = under 50% inhibition at 10 µM. The experiment is classed as cell membranes, Rattus norvegicus, Wistar, Cerebral cortex, Membrane.
Experiment [2] is described as follows: DRUGMATRIX: GABAA, Chloride Channel, TBOB radioligand binding (ligand: [3H] TBOB). The class given is cell membranes, Rattus norvegicus, Wistar, Cerebral cortex, Membrane. Conditions: Not Active = under 50% inhibition at 10 µM.
A further experiment deals with Glycine receptor (Rattus norvegicus, UniProt P22771+P24524+P07727+P20781). The class given is cell membranes, Wistar, Spinal cord, Membrane.
Experiment [3] addresses Sodium-dependent noradrenaline transporter (Homo sapiens, UniProt P23975). Kind of experiment: DRUGMATRIX: Norepinephrine Transporter radioligand binding (ligand: [125I] RTI-55). Conditions: mdck; Not Active = under 50% inhibition at 10 µM. The experiment is classed as cell membranes, MDCK, Membrane.
A short description of experiment [4]: DRUGMATRIX: beta-Lactamase enzyme inhibition (substrate: Nitrocefin). Also noted: species or system Bacillus cereus. The settings on record: Not Active = under 50% inhibition at 10 µM.
Experiment [5] is described as follows: DRUGMATRIX: Platelet-Derived Growth Factor (PDGF) radioligand binding (ligand: [125I] PDGF). The experiment is classed as cell-based. The settings on record: nih3t3; Not Active = under 50% inhibition at 10 µM.
Experiment [6] concerns the target 5-hydroxytryptamine receptor 6 (Homo sapiens, UniProt P50406). The class given is cell membranes, HeLa, Membrane. The settings on record: hela. Note: in other assays of this panel Not Active means under 50% inhibition at 10 µM.
Experiment [7] deals with T1, C-X-C chemokine receptor type 1 (Homo sapiens, UniProt P25024).
T1 sequence (P25024 whole entry): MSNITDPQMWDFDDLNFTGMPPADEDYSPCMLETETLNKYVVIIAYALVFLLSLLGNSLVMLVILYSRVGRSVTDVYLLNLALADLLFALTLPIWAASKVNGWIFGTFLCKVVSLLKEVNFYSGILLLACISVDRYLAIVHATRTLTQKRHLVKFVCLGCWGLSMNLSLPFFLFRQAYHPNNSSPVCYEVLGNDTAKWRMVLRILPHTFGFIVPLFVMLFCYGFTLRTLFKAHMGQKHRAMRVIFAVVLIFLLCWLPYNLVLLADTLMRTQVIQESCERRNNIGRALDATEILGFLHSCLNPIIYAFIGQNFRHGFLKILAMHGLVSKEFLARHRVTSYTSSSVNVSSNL

Experiment [8] in a line: DRUGMATRIX: Imidazoline I2, Central radioligand binding (ligand: [3H] Idazoxan). The experiment is classed as cell membranes, Rattus norvegicus, Wistar, Cerebral cortex, Membrane. Conditions: Not Active = under 50% inhibition at 10 µM.
Another experiment concerns the target T2, D(4) dopamine receptor (Homo sapiens, UniProt P21917).
T2 sequence (P21917 whole entry): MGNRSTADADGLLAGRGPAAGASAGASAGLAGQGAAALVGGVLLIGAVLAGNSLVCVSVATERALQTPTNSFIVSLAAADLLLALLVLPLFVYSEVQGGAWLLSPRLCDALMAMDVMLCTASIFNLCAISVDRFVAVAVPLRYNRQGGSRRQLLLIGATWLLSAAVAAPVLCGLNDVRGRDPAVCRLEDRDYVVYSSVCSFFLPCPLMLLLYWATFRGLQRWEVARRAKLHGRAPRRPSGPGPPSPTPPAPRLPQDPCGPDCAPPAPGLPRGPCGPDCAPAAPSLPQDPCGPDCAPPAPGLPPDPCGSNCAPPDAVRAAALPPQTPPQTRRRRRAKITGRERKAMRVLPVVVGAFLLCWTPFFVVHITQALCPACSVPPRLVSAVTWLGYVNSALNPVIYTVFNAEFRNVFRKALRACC
Kind of experiment: DRUGMATRIX: Dopamine D4.2 radioligand binding (ligand: [3H] Spiperone). The experiment is classed as cell membranes, CHO-K1, Membrane. Conditions: cho-k1; Not Active = under 50% inhibition at 10 µM.

In experiment [9] the target is Beta-3 adrenergic receptor (Homo sapiens, UniProt P13945). Kind of experiment: DRUGMATRIX: Adrenergic beta3 radioligand binding (ligand: [125I] Cyanopindolol). The experiment is classed as cell membranes, HEK293, Membrane. The settings on record: hek293; Not Active = under 50% inhibition at 10 µM.
Experiment [10] can be described thus: DRUGMATRIX: Sodium/nucleoside co-transporter radioligand binding (ligand: nitrobenzylthioinosine). The experiment is classed as cell membranes, Cavia porcellus, Dunkin-Hartley, Cerebral cortex, Membrane. Conditions: Not Active = under 50% inhibition at 10 µM.
A further experiment concerns the target T3, Thromboxane-A synthase (Homo sapiens, UniProt P24557).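 Note: enzyme inhibition assay with PGH2 supplied as substrate; in other assays of this panel Not Active means under 50% inhibition at 10 µM.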
T3 sequence (P24557 whole entry): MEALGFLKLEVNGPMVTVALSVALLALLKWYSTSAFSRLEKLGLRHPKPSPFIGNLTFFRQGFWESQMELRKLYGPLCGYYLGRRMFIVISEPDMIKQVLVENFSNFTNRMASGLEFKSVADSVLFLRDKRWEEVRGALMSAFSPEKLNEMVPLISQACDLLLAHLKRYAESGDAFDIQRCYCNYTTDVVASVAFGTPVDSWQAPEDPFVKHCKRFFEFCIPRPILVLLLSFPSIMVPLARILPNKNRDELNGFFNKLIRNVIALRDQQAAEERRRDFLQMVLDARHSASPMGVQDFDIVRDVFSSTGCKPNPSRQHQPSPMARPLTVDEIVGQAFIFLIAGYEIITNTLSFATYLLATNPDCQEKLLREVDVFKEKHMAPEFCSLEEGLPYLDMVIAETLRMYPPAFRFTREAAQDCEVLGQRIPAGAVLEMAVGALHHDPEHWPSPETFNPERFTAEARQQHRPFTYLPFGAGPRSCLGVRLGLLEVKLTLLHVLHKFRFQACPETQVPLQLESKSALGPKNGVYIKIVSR
Description: biochemical. The experiment is classed as tissue-based, Platelet. Conditions: platelet.

The target in another experiment is D(3) dopamine receptor (Homo sapiens, UniProt P35462). Description: DRUGMATRIX: Dopamine D3 radioligand binding (ligand: [3H] Spiperone). The experiment is classed as cell membranes, CHO, Membrane. Conditions: cho.
Experiment [11] deals with 5-hydroxytryptamine receptor 2B (Homo sapiens, UniProt P41595). The class given is cell membranes, CHO-K1, Membrane. The settings on record: cho-k1.
The target in another experiment is Histamine H2 receptor (Homo sapiens, UniProt P25021). The class given is cell membranes, CHO-K1, Membrane. The settings on record: cho-k1. Note: in other assays of this panel Not Active means under 50% inhibition at 10 µM.
Experiment [12] in a line: DRUGMATRIX: Glutamate, Kainate radioligand binding (ligand: [3H] Kainic acid). The experiment is classed as cell membranes, Rattus norvegicus, Wistar, Brain, Membrane. Conditions: Not Active = under 50% inhibition at 10 µM.

Chain of Sodium-dependent noradrenaline transporter (P23975 whole entry): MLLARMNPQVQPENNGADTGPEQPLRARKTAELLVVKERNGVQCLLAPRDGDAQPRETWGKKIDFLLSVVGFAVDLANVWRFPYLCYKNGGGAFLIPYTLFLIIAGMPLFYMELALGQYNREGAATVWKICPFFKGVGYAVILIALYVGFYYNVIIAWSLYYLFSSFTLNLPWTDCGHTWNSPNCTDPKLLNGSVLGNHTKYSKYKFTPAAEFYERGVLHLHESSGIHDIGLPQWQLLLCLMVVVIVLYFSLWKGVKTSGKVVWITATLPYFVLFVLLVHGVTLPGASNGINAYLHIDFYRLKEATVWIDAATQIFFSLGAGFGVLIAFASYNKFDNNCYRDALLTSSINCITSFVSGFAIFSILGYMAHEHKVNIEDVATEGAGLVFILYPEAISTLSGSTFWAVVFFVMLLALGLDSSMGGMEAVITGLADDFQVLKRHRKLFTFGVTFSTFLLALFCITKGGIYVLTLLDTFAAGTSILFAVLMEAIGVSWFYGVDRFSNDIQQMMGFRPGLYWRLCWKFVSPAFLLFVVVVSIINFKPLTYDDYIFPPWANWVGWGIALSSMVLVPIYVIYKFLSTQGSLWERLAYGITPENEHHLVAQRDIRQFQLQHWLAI
Chain of Histamine H2 receptor (P25021 whole entry): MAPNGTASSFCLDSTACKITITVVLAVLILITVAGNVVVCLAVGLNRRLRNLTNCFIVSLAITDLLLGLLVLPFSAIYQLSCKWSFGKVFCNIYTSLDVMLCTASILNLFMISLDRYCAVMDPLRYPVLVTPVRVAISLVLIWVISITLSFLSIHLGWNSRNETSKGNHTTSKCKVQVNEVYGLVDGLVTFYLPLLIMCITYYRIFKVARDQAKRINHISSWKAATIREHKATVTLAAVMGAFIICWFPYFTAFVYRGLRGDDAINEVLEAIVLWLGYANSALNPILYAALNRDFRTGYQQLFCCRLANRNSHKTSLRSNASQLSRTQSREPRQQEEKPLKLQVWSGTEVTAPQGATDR
Chain of Beta-3 adrenergic receptor (P13945 whole entry): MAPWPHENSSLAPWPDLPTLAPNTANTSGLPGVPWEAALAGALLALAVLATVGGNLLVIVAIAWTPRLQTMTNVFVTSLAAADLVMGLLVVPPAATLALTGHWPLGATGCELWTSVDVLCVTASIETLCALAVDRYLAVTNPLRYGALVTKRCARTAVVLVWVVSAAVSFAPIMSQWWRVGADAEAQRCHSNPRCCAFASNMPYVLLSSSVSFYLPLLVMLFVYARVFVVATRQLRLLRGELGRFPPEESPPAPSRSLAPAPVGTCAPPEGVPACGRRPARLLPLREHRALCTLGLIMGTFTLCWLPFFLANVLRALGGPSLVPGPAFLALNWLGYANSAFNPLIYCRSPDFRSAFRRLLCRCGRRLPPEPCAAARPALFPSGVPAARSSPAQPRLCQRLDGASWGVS
Chain of 5-hydroxytryptamine receptor 2B (P41595 whole entry): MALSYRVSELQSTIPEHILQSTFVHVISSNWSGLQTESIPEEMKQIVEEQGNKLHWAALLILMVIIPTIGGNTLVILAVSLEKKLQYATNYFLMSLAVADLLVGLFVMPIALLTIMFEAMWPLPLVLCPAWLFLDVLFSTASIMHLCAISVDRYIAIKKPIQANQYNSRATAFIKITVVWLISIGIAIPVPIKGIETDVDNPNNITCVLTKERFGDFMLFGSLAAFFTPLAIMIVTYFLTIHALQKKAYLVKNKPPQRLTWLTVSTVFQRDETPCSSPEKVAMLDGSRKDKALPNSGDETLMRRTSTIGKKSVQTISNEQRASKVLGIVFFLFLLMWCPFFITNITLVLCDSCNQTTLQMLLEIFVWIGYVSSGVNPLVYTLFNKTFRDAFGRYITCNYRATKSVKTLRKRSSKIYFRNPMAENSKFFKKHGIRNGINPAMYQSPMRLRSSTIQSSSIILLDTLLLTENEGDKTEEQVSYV
Chain of D(3) dopamine receptor (P35462 whole entry): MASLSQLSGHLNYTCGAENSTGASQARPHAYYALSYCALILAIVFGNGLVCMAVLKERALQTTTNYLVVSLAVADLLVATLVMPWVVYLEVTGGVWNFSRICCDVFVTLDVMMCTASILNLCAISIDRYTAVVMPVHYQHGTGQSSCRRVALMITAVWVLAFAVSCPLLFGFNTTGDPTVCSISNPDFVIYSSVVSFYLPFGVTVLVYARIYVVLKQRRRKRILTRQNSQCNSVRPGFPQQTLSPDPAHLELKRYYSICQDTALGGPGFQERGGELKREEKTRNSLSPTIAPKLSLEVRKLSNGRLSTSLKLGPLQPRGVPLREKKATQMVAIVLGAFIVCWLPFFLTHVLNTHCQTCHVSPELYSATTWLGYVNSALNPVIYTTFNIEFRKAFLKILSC
Chain of 5-hydroxytryptamine receptor 6 (P50406 whole entry): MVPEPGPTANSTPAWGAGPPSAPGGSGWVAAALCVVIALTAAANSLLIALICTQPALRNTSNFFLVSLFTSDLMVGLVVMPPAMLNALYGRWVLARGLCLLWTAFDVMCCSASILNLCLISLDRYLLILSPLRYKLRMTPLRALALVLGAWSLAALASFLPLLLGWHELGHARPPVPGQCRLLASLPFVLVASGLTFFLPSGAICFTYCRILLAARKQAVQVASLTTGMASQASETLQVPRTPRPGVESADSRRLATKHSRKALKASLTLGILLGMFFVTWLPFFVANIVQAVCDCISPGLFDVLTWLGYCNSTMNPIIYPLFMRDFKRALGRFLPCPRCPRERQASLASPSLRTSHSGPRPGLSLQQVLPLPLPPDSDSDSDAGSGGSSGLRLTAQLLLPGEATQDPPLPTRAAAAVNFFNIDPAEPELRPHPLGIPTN

Take `CNC(=O)Oc1ccc2c(c1)[C@]1(C)CCN(C)[C@@H]1N2C` [PHYSOSTIGMINE]: the IC50 result (in experiment [1]; in [2]; at Glycine receptor; in [3]; in experiment [4]; in experiment [5]) was “Not Active” in each case. The IC50 entry (in experiment [6]; in experiment [7]; in experiment [8]; on D(4) dopamine receptor; in experiment [9]; in experiment [10]) was “Not Active” each time. Besides, the IC50 entry (against Thromboxane-A synthase; at D(3) dopamine receptor; in experiment [11]; on Histamine H2 receptor; in experiment [12]) was “Not Active” in each case. For the same molecule, the Ki result in experiment [1], in [2], in experiment [4], in experiment [5], in experiment [8] and in experiment [10] was “Not Active” in each case. Also, in experiment [12], the Ki result is listed as “Not Active”.

Regarding `C=C(C)[C@@H]1[C@H]2OC(=O)[C@@H]1[C@]1(O)C[C@H]3O[C@]34C(=O)O[C@H]2[C@]14C` [PICROTOXININ], the IC50 result was “Not Active” in experiment [1]; 0.368 µM in [2] (read-out: IC50); “Not Active” at Glycine receptor; “Not Active” in experiment [3]; “Not Active” in [4]; “Not Active” in experiment [5]. Moreover, the IC50 entry (in experiment [6]; in experiment [7]; in [8]; on D(4) dopamine receptor; in experiment [9]; in experiment [10]) was “Not Active” throughout. For the same molecule, the IC50 result (at Thromboxane-A synthase; on D(3) dopamine receptor; in [11]; against Histamine H2 receptor; in experiment [12]) was “Not Active” each time. Also, the Ki entry in experiment [1] was “Not Active”; in [2] (read-out: Ki), 0.33 µM; in experiment [4], “Not Active”; in [5] it was “Not Active”; in [8] it was “Not Active”; in experiment [10], “Not Active”. In addition, the Ki entry in experiment [12] is listed as “Not Active”.

In the case of `CN1C(C(=O)Nc2ccccn2)=C(O)c2ccccc2S1(=O)=O` [PIROXICAM], the IC50 entry (in [1]; in [2]; against Glycine receptor; in experiment [3]; in experiment [4]; in [5]) was “Not Active” in each case. In addition, the IC50 result (in [6]; in experiment [7]; in [8]; on D(4) dopamine receptor; in experiment [9]; in [10]) was “Not Active” each time. For the same molecule, the IC50 entry (at Thromboxane-A synthase; at D(3) dopamine receptor; in experiment [11]; against Histamine H2 receptor; in [12]) was “Not Active” each time. Further, the Ki entry in experiment [1], in experiment [2], in [4], in [5], in [8] and in experiment [10] was “Not Active” in each case. In experiment [12], the Ki result is “Not Active”.

As for `CCC1(c2ccccc2)C(=O)NCNC1=O` [PRIMIDONE], the IC50 result (in experiment [1]; in experiment [2]; against Glycine receptor; in experiment [3]; in experiment [4]; in [5]) was “Not Active” in each case. For the same molecule, the IC50 entry (in experiment [6]; in [7]; in [8]; on D(4) dopamine receptor; in [9]; in experiment [10]) was “Not Active” each time. Besides, the IC50 result (against Thromboxane-A synthase; at D(3) dopamine receptor; in experiment [11]; at Histamine H2 receptor; in experiment [12]) was “Not Active” each time. Moreover, the inhibitory constant (Ki) result in experiment [1], in experiment [2], in experiment [4], in [5], in experiment [8] and in [10] was “Not Active” in each case. Also, the Ki entry in experiment [12] is reported as “Not Active”.

As to `CCCc1cc(=O)[nH]c(=S)[nH]1` [PROPYLTHIOURACIL], the IC50 result (in [1]; in experiment [2]; against Glycine receptor; in [3]; in experiment [4]; in [5]) was “Not Active” each time. Further, the IC50 entry (in [6]; in experiment [7]; in experiment [8]; at D(4) dopamine receptor; in experiment [9]; in experiment [10]) was “Not Active” each time. In addition, the IC50 entry (against Thromboxane-A synthase; on D(3) dopamine receptor; in experiment [11]; against Histamine H2 receptor; in experiment [12]) was “Not Active” throughout. For the same molecule, the inhibition constant (Ki) entry in experiment [1], in [2], in experiment [4], in [5], in [8] and in experiment [10] was “Not Active” in each case. For the same molecule, the Ki result in experiment [12] is reported as “Not Active”.

Usually IC50 stands for the concentration that inhibits the measured activity by half. The Ki is the dissociation constant of the complex between target and ligand, obtained from inhibition or displacement.
